Where two headings read alike, the source gives them in different places.
What was measured:
[1] = molecular target: T1, catalytic domain (JH1, amino acids 826-1132) of human JAK2 (Homo sapiens, UniProt O60674); test: JAK2 LanthaScreen JH1 binding assay; settings: read-out: JH1 Bind IC50
T1 construct: catalytic domain (JH1, amino acids 826-1132) of human JAK2; FLAG (N); biotin (biotinylated); purchased Carna Biosciences 08-445-20N; host or cells: baculovirus expression system
Protocol: Example A. JAK2 LanthaScreen […] Binding Assay
JAK2 JH1 binding assay utilizes catalytic domain (JH1, amino acids 826-1132) of human JAK2 expressed as N-terminal FLAG-tagged, biotinylated protein in a baculovirus expression system (Carna Biosciences, Product #08-445-20N). The assay was conducted in black 384-well polystyrene plates in a final reaction volume of 20 μL. JAK2 JH1 (1.5 nM) was incubated with compounds (100 nL serially diluted in DMSO) in the presence of 50 nM fluorescent JAK2-JH1 tracer and 0.5 nM Streptavidin-Tb cryptate (Cisbio Part #610SATLB) in assay buffer (50 mM Tris, pH=7.5, 10 mM MgCl2, 0.01% Brij-35, 0.1% BSA, 1 mM EGTA, 5% Glycerol and 5 mM DTT). Non-specific binding was accessed in the presence of 2 mM ATP. After incubation for 2 hours at 25° C., LanthaScreen signals were read on a PHERAstar FS plate reader (BMG LABTECH). Data was analyzed with IDBS XLfit and GraphPad Prism 5.0 software using a four parameter dose response curve to determine IC50 for each compound.

[2] = In vivo pharmacokinetics, cynomolgus monkey; parameters: species or system Cynomolgus monkeys; settings: both sexes, plasma, oral 3.0 mg/kg, read-out: CYNO PO AUC
Protocol: (§1) Example H. In Vivo Pharmacokinetics
(§2) Test compounds were administered to male Sprague Dawley rats or male and female Cynomolgus monkeys intravenously or via oral gavage. For intravenous (IV) dosing, test compounds were dosed at 1 mg/kg using a formulation of 10% dimethylacetamide (DMAC), 10% propylene glycol (PG) in acidified saline via IV bolus for rat or 10 min IV infusion for monkey. For oral (PO) dosing, test compounds were dosed at 3.0 mg/kg using 5% DMAC in 0.5% methylcellulose in citrate buffer (pH˜2.5). Blood samples were collected at predose and various time points up to 24 hours postdose. All blood samples were collected using EDTA as the anticoagulant and centrifuged to obtain plasma samples. The plasma concentrations of test compounds were determined by LC-MS/MS methods. The measured plasma concentrations were used to calculate PK parameters by standard noncompartmental methods using Phoenix® WinNonlin software program (version 8.0, Pharsight Corporation) or similar software. In rats and monkeys, cassette dosing of test compounds were conducted to obtain preliminary PK parameters. In vivo pharmacokinetic experiments with male beagle dogs may be performed under the conditions described above.

[3] = molecular target: T2, FLT3 (Homo sapiens, UniProt P36888); test: FLT3 enzymatic assay; assay type: biochemical; settings: 1 mM ATP
T2 sequence (P36888 27-993): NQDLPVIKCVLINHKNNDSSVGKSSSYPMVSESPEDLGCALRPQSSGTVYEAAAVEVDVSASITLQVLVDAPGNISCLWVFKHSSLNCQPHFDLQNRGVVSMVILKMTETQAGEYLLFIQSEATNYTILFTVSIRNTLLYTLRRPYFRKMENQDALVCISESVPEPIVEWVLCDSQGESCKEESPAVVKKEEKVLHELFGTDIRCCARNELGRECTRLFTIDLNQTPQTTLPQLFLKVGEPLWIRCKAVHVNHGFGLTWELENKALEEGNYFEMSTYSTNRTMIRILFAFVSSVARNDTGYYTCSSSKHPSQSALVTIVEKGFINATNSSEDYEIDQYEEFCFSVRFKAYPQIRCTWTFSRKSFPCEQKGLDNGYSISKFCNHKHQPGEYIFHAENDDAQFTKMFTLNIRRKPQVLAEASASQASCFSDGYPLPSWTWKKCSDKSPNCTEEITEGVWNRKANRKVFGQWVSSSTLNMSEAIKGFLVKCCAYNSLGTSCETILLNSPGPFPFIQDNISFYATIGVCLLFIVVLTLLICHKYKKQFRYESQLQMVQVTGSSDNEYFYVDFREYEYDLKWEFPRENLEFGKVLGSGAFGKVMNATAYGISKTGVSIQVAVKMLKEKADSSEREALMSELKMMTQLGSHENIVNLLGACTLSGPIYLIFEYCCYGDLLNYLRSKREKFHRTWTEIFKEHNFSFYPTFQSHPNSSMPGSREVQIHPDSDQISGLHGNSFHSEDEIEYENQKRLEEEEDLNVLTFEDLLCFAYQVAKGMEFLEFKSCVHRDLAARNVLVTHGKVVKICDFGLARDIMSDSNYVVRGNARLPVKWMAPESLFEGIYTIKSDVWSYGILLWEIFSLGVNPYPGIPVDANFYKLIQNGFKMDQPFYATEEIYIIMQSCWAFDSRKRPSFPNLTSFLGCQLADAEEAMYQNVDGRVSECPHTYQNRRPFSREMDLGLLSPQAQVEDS
Outline: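 Kinase reaction at room temperature in HEPES 50 mM pH 7.0 with 10 mM MgCl2, 1 mM DTT: 0.011 nM FLT3, 1 mM ATP, 500 nM biotinylated TK substrate, 0.5% DMSO. After 60 min, HTRF read as 665/620 nm ratio; IC50 from fit of percent control activity versus log concentration.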

[4] = In vivo pharmacokinetics, rat; parameters: species or system Sprague Dawley rats; settings: male, Sprague Dawley, plasma, oral 3.0 mg/kg
Protocol: as §1, §2

T1 sequence (O60674 826-1132): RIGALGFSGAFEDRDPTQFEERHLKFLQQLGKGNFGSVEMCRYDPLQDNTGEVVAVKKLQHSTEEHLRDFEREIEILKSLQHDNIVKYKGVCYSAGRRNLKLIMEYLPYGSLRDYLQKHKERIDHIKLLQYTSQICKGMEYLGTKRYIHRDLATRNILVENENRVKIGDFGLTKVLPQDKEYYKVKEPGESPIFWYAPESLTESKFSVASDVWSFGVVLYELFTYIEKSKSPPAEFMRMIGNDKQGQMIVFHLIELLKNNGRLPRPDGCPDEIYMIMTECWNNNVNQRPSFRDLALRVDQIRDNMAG

SMILES: [2H]C([2H])([2H])n1cc(-c2[nH]c3ncc4c(c3c2-c2ccc3c(c2)COC3(C)C)n([C@@H]2CC[C@@H](NC(=O)OC)C2)c(=O)n4C([2H])([2H])[2H])c(F)n1 [Example 8, Methyl ((1R,3R)-3-(8-(1,1-dimethyl-1,3-dihydroisobenzofuran-5-yl)-7-(3-fluoro-1-(methyl-d3)-1H-pyrazol-4-yl)-3-(methyl-d3)-2-oxo-3,6-dihydroimidazo[4,5-d]pyrrolo[2,3-b]pyridin-1(2H)-yl)cyclopentyl)carbamate]
- IC50 ([1]; Table A): > 1000 nM
- IC50 ([1]; Table C): > 1000 nM
- AUC [2]: ≤ 0.5 µM·h
- IC50 [3]: > 2500 nM
- AUC [4]: > 1.5 µM·h

SMILES: [2H]C([2H])([2H])n1cc(-c2[nH]c3ncc4c(c3c2-c2ccc3c(cnn3C([2H])([2H])[2H])c2)n([C@@H]2CC[C@@H](NC(=O)OC)C2)c(=O)n4C([2H])([2H])[2H])c(F)n1 [Example 6, Methyl ((1R,3R)-3-(7-(3-fluoro-1-(methyl-d3)-1H-pyrazol-4-yl)-3-(methyl-d3)-8-(1-(methyl-d3)-1H-indazol-5-yl)-2-oxo-3,6-dihydroimidazo[4,5-d]pyrrolo[2,3-b]pyridin-1(2H)-yl)cyclopentyl)carbamate]
- IC50 ([1]; Table A): > 1000 nM
- IC50 ([1]; Table C): > 1000 nM
- AUC [2]: > 1.5 µM·h
- IC50 [3]: 1250 to 2500 nM
- AUC [4]: 0.5 to 1.5 µM·h

SMILES: COC(=O)N[C@@H]1CC[C@@H](n2c(=O)n(C)c3cnc4[nH]c(-c5cn(C)nc5OC)c(-c5ccc(F)cc5)c4c32)C1 [Example 1, Methyl ((1R,3R)-3-(8-(4-fluorophenyl)-7-(3-methoxy-1-methyl-1H-pyrazol-4-yl)-3-methyl-2-oxo-3,6-dihydroimidazo[4,5-d]pyrrolo[2,3-b]pyridin-1(2H)-yl)cyclopentyl)carbamate]
- IC50 ([1]; Table A): > 1000 nM
- IC50 ([1]; Table C): > 1000 nM
- AUC [2]: > 1.5 µM·h
- IC50 [3]: > 2500 nM
- AUC [4]: > 1.5 µM·h

SMILES: [2H]C([2H])([2H])n1cc(-c2[nH]c3ncc4c(c3c2-c2ccc(F)cc2)n([C@@H]2CC[C@@H](NC(=O)OC)C2)c(=O)n4C([2H])([2H])[2H])c(F)n1 [Example 7, Methyl ((1R,3R)-3-(7-(3-fluoro-1-(methyl-d3)-1H-pyrazol-4-yl)-8-(4-fluorophenyl)-3-(methyl-d3)-2-oxo-3,6-dihydroimidazo[4,5-d]pyrrolo[2,3-b]pyridin-1(2H)-yl)cyclopentyl)carbamate]
- IC50 ([1]; Table A): > 1000 nM
- IC50 ([1]; Table C): > 1000 nM
- AUC [2]: > 1.5 µM·h
- IC50 [3]: > 2500 nM
- AUC [4]: > 1.5 µM·h

SMILES: [2H]C([2H])([2H])n1ncc2cc(-c3c(-c4cn(C)nc4OC)[nH]c4ncc5c(c34)n([C@@H]3CC[C@@H](NC(=O)OC)C3)c(=O)n5C)ccc21 [Example 5, Methyl ((1R,3R)-3-(7-(3-methoxy-1-methyl-1H-pyrazol-4-yl)-3-methyl-8-(1-(methyl-d3)-1H-indazol-5-yl)-2-oxo-3,6-dihydroimidazo[4,5-d]pyrrolo[2,3-b]pyridin-1(2H)-yl)cyclopentyl)carbamate]
- IC50 ([1]; Table A): > 1000 nM
- IC50 ([1]; Table C): > 1000 nM
- AUC [2]: > 1.5 µM·h
- IC50 [3]: 1250 to 2500 nM
- AUC [4]: 0.5 to 1.5 µM·h

SMILES: [2H]C([2H])([2H])n1cc(-c2[nH]c3ncc4c(c3c2-c2ccc(C(C)(C)O)cc2)n([C@@H]2CC[C@@H](NC(=O)OC)C2)c(=O)n4C([2H])([2H])[2H])c(F)n1 [Example 10, Methyl ((1R,3R)-3-(7-(3-fluoro-1-(methyl-d3)-1H-pyrazol-4-yl)-8-(4-(2-hydroxypropan-2-yl)phenyl)-3-(methyl-d3)-2-oxo-3,6-dihydroimidazo[4,5-d]pyrrolo[2,3-b]pyridin-1(2H)-yl)cyclopentyl)carbamate]
- IC50 ([1]; Table A): > 1000 nM
- IC50 ([1]; Table C): > 1000 nM
- AUC [2]: 0.5 to 1.5 µM·h
- IC50 [3]: 250 to 1250 nM
- AUC [4]: > 1.5 µM·h

SMILES: COC(=O)N[C@@H]1CC[C@@H](n2c(=O)n(C)c3cnc4[nH]c(-c5cn(C)nc5OC)c(-c5ccccc5)c4c32)C1 [Example 2, Methyl ((1R,3R)-3-(7-(3-methoxy-1-methyl-1H-pyrazol-4-yl)-3-methyl-2-oxo-8-phenyl-3,6-dihydroimidazo[4,5-d]pyrrolo[2,3-b]pyridin-1(2H)-yl)cyclopentyl)carbamate]
- IC50 ([1]; Table A): > 1000 nM
- IC50 ([1]; Table C): > 1000 nM
- AUC [2]: > 1.5 µM·h
- IC50 [3]: > 2500 nM
- AUC [4]: > 1.5 µM·h

SMILES: [2H]C([2H])([2H])Oc1ccc(-c2c(-c3cn(C([2H])([2H])[2H])nc3F)[nH]c3ncc4c(c23)n([C@@H]2CC[C@@H](NC(=O)OC)C2)c(=O)n4C([2H])([2H])[2H])cc1 [Example 9, Methyl ((1R,3R)-3-(7-(3-fluoro-1-(methyl-d3)-1H-pyrazol-4-yl)-8-(4-(methoxy-d3)phenyl)-3-(methyl-d3)-2-oxo-3,6-dihydroimidazo[4,5-d]pyrrolo[2,3-b]pyridin-1(2H)-yl)cyclopentyl)carbamate]
- IC50 ([1]; Table A): > 1000 nM
- IC50 ([1]; Table C): > 1000 nM
- AUC [2]: > 1.5 µM·h
- IC50 [3]: 250 to 1250 nM
- AUC [4]: > 1.5 µM·h

SMILES: COC(=O)N[C@@H]1CC[C@@H](n2c(=O)n(C)c3cnc4[nH]c(-c5cn(C)nc5OC)c(-c5cccc(F)c5)c4c32)C1 [Example 3, Methyl ((1R,3R)-3-(8-(3-fluorophenyl)-7-(3-methoxy-1-methyl-1H-pyrazol-4-yl)-3-methyl-2-oxo-3,6-dihydroimidazo[4,5-d]pyrrolo[2,3-b]pyridin-1(2H)-yl)cyclopentyl)carbamate]
- IC50 ([1]; Table A): > 1000 nM
- IC50 ([1]; Table C): > 1000 nM
- AUC [2]: > 1.5 µM·h
- IC50 [3]: > 2500 nM
- AUC [4]: > 1.5 µM·h

SMILES: COC(=O)N[C@@H]1CC[C@@H](n2c(=O)n(C)c3cnc4[nH]c(-c5cn(C)nc5OC)c(-c5ccc(OC)c(F)c5)c4c32)C1 [Example 4, Methyl ((1R,3R)-3-(8-(3-fluoro-4-methoxyphenyl)-7-(3-methoxy-1-methyl-1H-pyrazol-4-yl)-3-methyl-2-oxo-3,6-dihydroimidazo[4,5-d]pyrrolo[2,3-b]pyridin-1(2H)-yl)cyclopentyl)carbamate]
- IC50 ([1]; Table A): > 1000 nM
- IC50 ([1]; Table C): > 1000 nM
- AUC [2]: > 1.5 µM·h
- IC50 [3]: > 2500 nM
- AUC [4]: > 1.5 µM·h
